# According to PubChem BioAssay (NCI):
#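 Tested at 5 concentrations; 48 h exposure; 96-well plates; endpoints linearly interpolated, else capped at highest concentration. Definition used: TGI = concentration required for complete inhibition of growth.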
# Experiments:
# Assay in all cases: growth of human tumour cells (NCI), 48 h
# MDA-N = test system: MDA-N
# OVCAR-5 ovarian = test system: OVCAR-5 ovarian
# M14 melanoma = test system: M14 melanoma
# MDA-MB-231 breast = test system: MDA-MB-231 breast
# SW-620 colon = test system: SW-620 colon
# SNB-75 CNS = test system: SNB-75 CNS
# SK-OV-3 ovarian = test system: SK-OV-3 ovarian
# SK-MEL-2 melanoma = test system: SK-MEL-2 melanoma
# SF-295 CNS = test system: SF-295 CNS
# SK-MEL-5 melanoma = test system: SK-MEL-5 melanoma
# UACC-257 melanoma = test system: UACC-257 melanoma
# MALME-3M melanoma = test system: MALME-3M melanoma
# A498 renal = test system: A498 renal
# HCT-116 colon = test system: HCT-116 colon
# HL-60(TB) leukemia = test system: HL-60(TB) leukemia
# HS 578T breast = test system: HS 578T breast
# CAKI-1 renal = test system: CAKI-1 renal
# RPMI-8226 leukemia = test system: RPMI-8226 leukemia
# MCF7 breast = test system: MCF7 breast
# SK-MEL-28 melanoma = test system: SK-MEL-28 melanoma
# RXF 393 renal = test system: RXF 393 renal
# A549 NSCLC = test system: A549 NSCLC
# OVCAR-3 ovarian = test system: OVCAR-3 ovarian
# OVCAR-4 ovarian = test system: OVCAR-4 ovarian
# U251 CNS = test system: U251 CNS
# MOLT-4 leukemia = test system: MOLT-4 leukemia
# T-47D breast = test system: T-47D breast
# HCC-2998 colon = test system: HCC-2998 colon
# DU-145 prostate = test system: DU-145 prostate
# TK-10 renal = test system: TK-10 renal
# 786-0 renal = test system: 786-0 renal
# HOP-62 NSCLC = test system: HOP-62 NSCLC
# K-562 leukemia = test system: K-562 leukemia
# LOX IMVI melanoma = test system: LOX IMVI melanoma
# HOP-92 NSCLC = test system: HOP-92 NSCLC
# CCRF-CEM leukemia = test system: CCRF-CEM leukemia
# MDA-MB-435 = test system: MDA-MB-435
# NCI/ADR-RES ovarian = test system: NCI/ADR-RES ovarian
# KM12 colon = test system: KM12 colon
# NCI-H23 lung = test system: NCI-H23 lung
# PC-3 prostate = test system: PC-3 prostate
# SR leukemia = test system: SR leukemia
# UACC-62 melanoma = test system: UACC-62 melanoma
# SF-268 CNS = test system: SF-268 CNS
# COLO 205 colon = test system: COLO 205 colon
# NCI-H522 lung = test system: NCI-H522 lung
# HT29 colon = test system: HT29 colon
# IGROV1 ovarian = test system: IGROV1 ovarian
# ACHN renal = test system: ACHN renal
# SF-539 CNS = test system: SF-539 CNS
# SN12C renal = test system: SN12C renal
# OVCAR-8 ovarian = test system: OVCAR-8 ovarian
# UO-31 renal = test system: UO-31 renal
# NCI-H460 lung = test system: NCI-H460 lung
# SNB-19 CNS = test system: SNB-19 CNS
# NCI-H226 lung = test system: NCI-H226 lung
# HCT-15 colon = test system: HCT-15 colon
# EKVX NSCLC = test system: EKVX NSCLC
# BT-549 breast = test system: BT-549 breast
structure (smiles),measurement,setting,value
C[C@H](CCC(=O)NCCS(=O)(=O)O)[C@H]1CC[C@H]2[C@@H]3CC[C@@H]4C[C@H](O)CC[C@]4(C)[C@H]3CC[C@]12C,TGI,MDA-N,> 100 µM
same,TGI,OVCAR-5 ovarian,> 100 µM
same,TGI,M14 melanoma,> 100 µM
same,TGI,MDA-MB-231 breast,> 100 µM
same,TGI,SW-620 colon,> 100 µM
same,TGI,SNB-75 CNS,> 100 µM
same,TGI,SK-OV-3 ovarian,> 100 µM
same,TGI,SK-MEL-2 melanoma,> 100 µM
same,TGI,SF-295 CNS,> 100 µM
same,TGI,SK-MEL-5 melanoma,> 100 µM
same,TGI,UACC-257 melanoma,> 100 µM
same,TGI,MALME-3M melanoma,> 100 µM
same,TGI,A498 renal,> 100 µM
same,TGI,HCT-116 colon,> 100 µM
same,TGI,HL-60(TB) leukemia,> 100 µM
same,TGI,HS 578T breast,> 100 µM
same,TGI,CAKI-1 renal,> 100 µM
same,TGI,RPMI-8226 leukemia,> 100 µM
same,TGI,MCF7 breast,> 100 µM
same,TGI,SK-MEL-28 melanoma,> 100 µM
same,TGI,RXF 393 renal,> 100 µM
same,TGI,A549 NSCLC,> 100 µM
same,TGI,OVCAR-3 ovarian,> 100 µM
same,TGI,OVCAR-4 ovarian,> 100 µM
same,TGI,U251 CNS,> 100 µM
same,TGI,MOLT-4 leukemia,> 100 µM
same,TGI,T-47D breast,> 100 µM
same,TGI,HCC-2998 colon,> 100 µM
same,TGI,DU-145 prostate,> 100 µM
same,TGI,TK-10 renal,> 100 µM
same,TGI,786-0 renal,> 100 µM
same,TGI,HOP-62 NSCLC,> 100 µM
same,TGI,K-562 leukemia,> 100 µM
same,TGI,LOX IMVI melanoma,> 100 µM
same,TGI,HOP-92 NSCLC,> 100 µM
same,TGI,CCRF-CEM leukemia,> 100 µM
same,TGI,MDA-MB-435,> 100 µM
same,TGI,NCI/ADR-RES ovarian,> 100 µM
same,TGI,KM12 colon,> 100 µM
same,TGI,NCI-H23 lung,> 100 µM
same,TGI,PC-3 prostate,> 100 µM
same,TGI,SR leukemia,> 100 µM
same,TGI,UACC-62 melanoma,> 100 µM
same,TGI,SF-268 CNS,> 100 µM
same,TGI,COLO 205 colon,> 100 µM
same,TGI,NCI-H522 lung,> 100 µM
same,TGI,HT29 colon,> 100 µM
same,TGI,IGROV1 ovarian,> 100 µM
same,TGI,ACHN renal,> 100 µM
same,TGI,SF-539 CNS,> 100 µM
same,TGI,SN12C renal,> 100 µM
same,TGI,OVCAR-8 ovarian,> 100 µM
same,TGI,UO-31 renal,> 100 µM
same,TGI,NCI-H460 lung,> 100 µM
same,TGI,SNB-19 CNS,> 100 µM
same,TGI,NCI-H226 lung,> 100 µM
same,TGI,HCT-15 colon,> 100 µM
same,TGI,EKVX NSCLC,> 100 µM
same,TGI,BT-549 breast,> 100 µM
CC(=O)O[C@H]1CC[C@@]2(C)C(=CC[C@H]3[C@@H]4CC[C@H](c5cc(C(F)(F)F)n(C(C)=O)n5)[C@@]4(C)CC[C@@H]32)C1,TGI,MDA-N,23.6 µM
same,TGI,OVCAR-5 ovarian,22.1 µM
same,TGI,M14 melanoma,22.1 µM
same,TGI,MDA-MB-231 breast,14.8 µM
same,TGI,SW-620 colon,49 µM
same,TGI,SNB-75 CNS,20.8 µM
same,TGI,SK-OV-3 ovarian,25.4 µM
same,TGI,SK-MEL-2 melanoma,20.8 µM
same,TGI,SF-295 CNS,17 µM
same,TGI,SK-MEL-5 melanoma,15.3 µM
same,TGI,UACC-257 melanoma,13.9 µM
same,TGI,MALME-3M melanoma,> 52.8 µM
same,TGI,A498 renal,22.5 µM
same,TGI,HCT-116 colon,15.8 µM
same,TGI,HL-60(TB) leukemia,15.4 µM
same,TGI,HS 578T breast,> 60.8 µM
same,TGI,CAKI-1 renal,24.5 µM
same,TGI,RPMI-8226 leukemia,17.9 µM
same,TGI,MCF7 breast,18.7 µM
same,TGI,SK-MEL-28 melanoma,28.9 µM
same,TGI,RXF 393 renal,17.8 µM
same,TGI,A549 NSCLC,20.5 µM
same,TGI,OVCAR-3 ovarian,18.7 µM
same,TGI,OVCAR-4 ovarian,15.6 µM
same,TGI,U251 CNS,16.5 µM
same,TGI,MOLT-4 leukemia,8.39 µM
same,TGI,T-47D breast,25 µM
same,TGI,HCC-2998 colon,27.3 µM
same,TGI,DU-145 prostate,23.5 µM
same,TGI,TK-10 renal,14.9 µM
same,TGI,786-0 renal,17.7 µM
same,TGI,HOP-62 NSCLC,21.2 µM
same,TGI,K-562 leukemia,12.5 µM
same,TGI,LOX IMVI melanoma,22.4 µM
same,TGI,HOP-92 NSCLC,6.43 µM
same,TGI,CCRF-CEM leukemia,9.04 µM
same,TGI,MDA-MB-435,21.4 µM
same,TGI,NCI/ADR-RES ovarian,24 µM
same,TGI,KM12 colon,20.9 µM
same,TGI,NCI-H23 lung,28.6 µM
same,TGI,PC-3 prostate,16 µM
same,TGI,SR leukemia,14.8 µM
same,TGI,UACC-62 melanoma,24.5 µM
same,TGI,SF-268 CNS,> 48.1 µM
same,TGI,COLO 205 colon,14.5 µM
same,TGI,NCI-H522 lung,> 38.5 µM
same,TGI,HT29 colon,17.4 µM
same,TGI,IGROV1 ovarian,16.4 µM
same,TGI,ACHN renal,20.2 µM
same,TGI,SF-539 CNS,21.9 µM
same,TGI,SN12C renal,20.8 µM
same,TGI,OVCAR-8 ovarian,24.8 µM
same,TGI,UO-31 renal,3.23 µM
same,TGI,NCI-H460 lung,12.6 µM
same,TGI,SNB-19 CNS,24 µM
same,TGI,NCI-H226 lung,20.8 µM
same,TGI,HCT-15 colon,21.8 µM
same,TGI,EKVX NSCLC,21.3 µM
same,TGI,BT-549 breast,25.8 µM
